Consider 9 compounds from article PMC3602417 (MedChemComm, 2013).

Molecules are shown by their SMILES. Like-named read-outs stand apart in the source and are kept apart here.

By Ki is commonly meant the equilibrium dissociation constant of an inhibitor or competing ligand from its target.

Data set [1] deals with rats. The note with it: cited from earlier work.
Data set [2] concerns rats. The following applies: cited from earlier work. This is another data set of the same source.
Another data set can be described thus: water solubility. The class given is physicochemical.
In the next data set the test system is nAChRs. The following applies: cited from earlier work.
Data set [3] has as its target T1, VMAT2 (Rattus norvegicus, UniProt Q01827). The following applies: cited from earlier work.
In data set [4] the target is T1, VMAT2. In words: inhibition of [3H]DA uptake into rat striatal synaptic vesicles. The class given is biochemical.
Data set [5] deals with T1, VMAT2. In words: [3H]DTBZ binding to rat synaptic vesicle membranes.
The target in data set [6] is T1, VMAT2. The note with it: read-out: [3H]DTBZ Ki ± SEM; Table 1; rat synaptic vesicle membranes; ref 12b; cited from earlier work.
Data set [7] concerns rats. The following applies: cited from earlier work. This is another data set of the same source.
The test system of the next data set is METH-evoked DA release. The note with it: cited from earlier work.
The test system of data set [8] is rats. The note with it: cited from earlier work. The source holds these as a separate data set.
The conditions of data set [9]: cited from earlier work.
Data set [10] deals with rats. Nature of the data set: METH self-administration. The following applies: preliminary data. Type of data set: in vivo, rat.

T1 sequence (Q01827 whole entry): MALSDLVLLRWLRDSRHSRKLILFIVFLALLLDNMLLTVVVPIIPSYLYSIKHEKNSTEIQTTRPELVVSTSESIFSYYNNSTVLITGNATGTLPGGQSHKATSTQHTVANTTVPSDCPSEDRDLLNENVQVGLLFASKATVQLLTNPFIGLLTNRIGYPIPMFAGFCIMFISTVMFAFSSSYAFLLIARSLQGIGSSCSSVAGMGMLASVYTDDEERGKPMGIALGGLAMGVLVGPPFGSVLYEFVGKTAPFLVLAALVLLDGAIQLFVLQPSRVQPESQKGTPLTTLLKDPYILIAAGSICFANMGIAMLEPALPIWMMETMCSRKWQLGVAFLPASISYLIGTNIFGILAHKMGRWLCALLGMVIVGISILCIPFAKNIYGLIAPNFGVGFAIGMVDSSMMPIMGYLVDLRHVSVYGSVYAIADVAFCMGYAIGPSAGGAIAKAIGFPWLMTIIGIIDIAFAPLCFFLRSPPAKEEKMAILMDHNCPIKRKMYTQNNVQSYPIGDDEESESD

As for `CN1[C@@H](CCc2ccccc2)CCC[C@H]1CCc1ccccc1` [Compound 2, lobelane, reference compound], the “effect on food-maintained responding” value in the data set on rats [1] is given as “without altering food-maintained responding”. For the same compound, in the data set on rats [2] (rats), the “effect on METH self-administration (SA)” value is reported as “dose-dependently decreases METH self-administration”. For the same compound, the “water solubility” value in the data set “water solubility” is reported as “low water solubility”. In the data set on nAChRs (compared to lobeline), the “activity at nAChRs” value was “negligible activity”.

Take `c1ccc(CC[C@H]2CCC[C@@H](CCc3ccccc3)N2)cc1` [Compound 3, nor-lobelane]: the “potency for VMAT2 binding and inhibition relative to lobelane” value on VMAT2 [3] was “equal potency to lobelane”.

As for `CN(C)N1[C@@H](CCc2ccccc2)CCC[C@H]1CCc1ccccc1` [Compound 13], the “potency inhibiting [3H]DA uptake at VMAT2 relative to lobelane” value at VMAT2 [4] is given as “equipotent to lobelane”. Moreover, at VMAT2 [5], the “affinity at the [3H]DTBZ binding site” value was “no affinity”.

In the case of `CCN1[C@@H](CCc2ccccc2)CCC[C@H]1CCc1ccccc1` [Compound 4], the Ki at VMAT2 [6] is 3.41 ± 0.67 µM.

Take `CN1[C@@H](CC(=O)c2ccccc2)CCC[C@H]1C[C@H](O)c1ccccc1` [Compound 1, (−)-lobeline]: the “effect on METH-induced behavioral effects” value in the data set on rats [7] is recorded as “attenuates METH-induced behavioral effects”. In addition, the “effect on METH-evoked DA release” value in the data set on METH-evoked DA release (rat striatal slices) is “inhibits METH-evoked DA release from rat striatal slices”. Moreover, the “affinity at nAChR α4β2* subtype” value in the data set on nAChRs (α4β2* subtype) is recorded as “high affinity”.

For the compound `N#CCN1[C@@H](CCc2ccccc2)CCC[C@H]1CCc1ccccc1` [Compound 8], the “fold lower potency in inhibiting [3H]DA uptake at VMAT2 compared to lobelane” value at VMAT2 [4] (relative to lobelane) is reported as 100 fold.

Take `COc1ccc(CC[C@H]2CCC[C@@H](CCc3ccc(OC)cc3)N2C[C@@H](O)CO)cc1` [Compound 19a]: the “effect on METH CPP” value in the data set with rats [8] is listed as “effectively decreases”. The “effect on food-maintained responding” value with rats [1] was “without altering food-maintained responding”. The “duration of action to inhibit METH SA within a behavioral session” value in the data set with rats [2] (compared to lobeline and lobelane) was “significantly increased duration of action”. Further, the “effect on METH SA” value in the data set on rats [2] (rats) was “effectively decreases”. Moreover, in the data set with rats [2] (repeated dosing), the “tolerance to decrease of METH SA and CPP after repeated dosing” value is “not observed”. Also, in data set [9], the “CPP produced by the compound (abuse liability)” value is “does not produce CPP” and the “self-administration of the compound (abuse liability)” value is “not self-administered”. In addition, in the data set on METH-evoked DA release (vesicles and striatal slices), the “effect on METH-evoked DA release” value was “decreasing METH-evoked DA release from vesicles and striatal slices without intrinsic activity”.

As to `OC[C@H](O)CN1[C@@H](CCc2ccccc2)CCC[C@H]1CCc1ccccc1` [Compound 14a], the “effect on METH SA, preliminary in vivo screens” value in the data set on rats [10] is “decrease in METH SA in rats”.

As to `CCCN1[C@@H](CCc2ccccc2)CCC[C@H]1CCc1ccccc1` [Compound 5], the Ki on VMAT2 [6] was 1.87 ± 0.25 µM.
